Laboratory results from patent US8354502B2, “Bioactive peptides identified in enzymatic hydrolyzates of milk caseins and method of obtaining same” (Consejo Superior de Investigaciones Cientificas, priority 2005, dated 2013).
Read-outs that look alike come from different tables or passages of the source. Where a SMILES comes first, the peptide text is derived from it. Where no end group is shown, it is not given here.

Columns and labels:
[1] = target: T1, angiotensin-converting enzyme (ACE) (Oryctolagus cuniculus, UniProt P12822); assay: Angiotensin-converting enzyme inhibitory activity (ACEIa) in vitro; assay type: biochemical
T1 sequence (P12822 34-1310): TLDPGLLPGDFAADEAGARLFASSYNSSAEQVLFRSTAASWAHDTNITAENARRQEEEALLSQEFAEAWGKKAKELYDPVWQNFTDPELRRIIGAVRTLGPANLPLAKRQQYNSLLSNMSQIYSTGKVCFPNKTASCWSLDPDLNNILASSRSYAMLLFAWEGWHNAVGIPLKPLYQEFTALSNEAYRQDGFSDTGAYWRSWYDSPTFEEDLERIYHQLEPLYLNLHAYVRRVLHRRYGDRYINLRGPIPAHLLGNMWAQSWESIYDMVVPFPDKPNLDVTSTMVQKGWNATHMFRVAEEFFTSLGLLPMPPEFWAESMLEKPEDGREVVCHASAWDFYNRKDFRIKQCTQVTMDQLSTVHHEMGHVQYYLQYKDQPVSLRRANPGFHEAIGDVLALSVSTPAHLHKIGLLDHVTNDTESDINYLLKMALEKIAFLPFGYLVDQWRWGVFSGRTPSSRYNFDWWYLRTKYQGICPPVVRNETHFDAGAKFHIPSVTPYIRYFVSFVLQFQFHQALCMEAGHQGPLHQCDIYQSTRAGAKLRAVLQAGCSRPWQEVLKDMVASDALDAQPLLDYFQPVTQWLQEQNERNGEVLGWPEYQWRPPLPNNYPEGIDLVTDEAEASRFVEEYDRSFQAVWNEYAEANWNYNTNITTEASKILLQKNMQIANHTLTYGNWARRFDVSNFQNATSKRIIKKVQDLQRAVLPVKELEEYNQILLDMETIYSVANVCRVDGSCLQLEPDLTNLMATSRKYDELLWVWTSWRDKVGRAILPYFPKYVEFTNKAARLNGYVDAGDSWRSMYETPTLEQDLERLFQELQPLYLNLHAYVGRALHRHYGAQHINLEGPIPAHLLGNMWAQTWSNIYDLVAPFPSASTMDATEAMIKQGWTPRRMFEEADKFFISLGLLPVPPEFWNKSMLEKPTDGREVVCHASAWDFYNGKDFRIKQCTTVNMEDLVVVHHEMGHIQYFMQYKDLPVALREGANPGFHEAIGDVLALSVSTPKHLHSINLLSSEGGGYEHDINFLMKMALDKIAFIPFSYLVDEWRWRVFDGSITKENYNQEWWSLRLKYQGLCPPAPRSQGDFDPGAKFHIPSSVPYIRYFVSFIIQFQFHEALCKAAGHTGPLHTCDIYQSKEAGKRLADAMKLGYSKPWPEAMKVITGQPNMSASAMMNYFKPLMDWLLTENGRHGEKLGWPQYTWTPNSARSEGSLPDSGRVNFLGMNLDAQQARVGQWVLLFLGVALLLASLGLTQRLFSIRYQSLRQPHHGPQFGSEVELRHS
Procedure: The ACE-inhibitory activity is measured in vitro by the method of D. W. Cushman and H. S. Cheung (Spectrophotometric assay and properties of angiotensin-converting enzyme in rabbit lung. Biochemical Pharmacology, 1971, 20:1637-1648) later modified by […]. Yoon, D. Y. Yu, […]. Chung (Novel angiotensin-1-converting enzyme inhibitory peptides derived from recombinant human αs1-casein expressed in Escherichia coli. Journal of Dairy Research 1999, 66,431-439). The substrate, […], Sigma, Chemical Co, St. Louis, Mo., USA), is dissolved in 0.1 M borate buffer with 0.3 M NaCl, pH 8.3, to obtain a final concentration of 5 mM. 40 μL of each one of the samples whose ACE-inhibitory activity is to be assayed are added to 100 μL of substrate. The ACE enzyme ([…], Sigma) is added, dissolved in 50% glycerol and diluted at the point in time of performing the test in 1/10 bidistilled water. The reaction is carried out at 37° C. for 30 minutes in water bath. The enzyme is inactivated by reducing the pH with 150 μl HCL 1N. The hipuric acid formed is extracted with 1000 μL ethyl acetate. Following agitation in vortex for 20 seconds, it is centrifuged at 3000×g for 10 minutes at ambient temperature. 750 μL are taken from the organic phase that is heat-evaporated at 95° C. for 10 minutes. The hipuric acid residue is re-dissolved in 800 μL bidistilled water and, after agitating for 20 seconds, the absorbance at 228 nm is measured in a Dur-70 spectrophotometer from Beckman Instruments, Inc., Fullerton, USA. The following equation is used for calculating the percentage of ACE-inhibitory activity: [formula] The blank is used to correct the background absorbance. This blank contains substrate, enzyme and 20 μL bidistilled water instead of sample, and the reaction is halted at time zero. The control entailed one hundred percent of the enzymatic action on the substrate in absence of inhibitors and contains […] of water instead of sample and is incubated for the same length of time as the sample. The results are shown as IC50 (μM) or concentration at which the activity of the enzyme is inhibited by 50%. The protein concentration is determined by means of the bicinchoninic acid test (Pierce-Rockord, Ill., USA), using bovine seroalbumin as a pattern.

[2] = tested on: Enterococcus faecalis CECT 795; assay: Antimicrobial activity (colony count after 2 h incubation); assay type: cell-based; conditions: synthetic peptide 0.05 mM
Procedure: (§1) The antimicrobial activity is determined in accordance with the method of A. Pellegrini, C. Deltting, U. Thomas, P. Hunziker (Isolation and characterization of four bactericidal domains in the bovine β-lactoglobulin Biochimica et Biophysica Acta, 2001, 1526:131-140) using as microorganisms Escherichia coli [American Type Culture Collection (ATCC), Rockville, Md., USA] ATCC 25922, Listeria innocua [Colección Española de Cultivos Tipo (CECT) Valencia, Spain] CECT 910T, Staphylococcus epidermidis CECT 231, Enterococcus faecalis CECT 795, Serratia marcescens CECT 854 and Staphylococcus carnosus CECT 4491T.
(§2) The bacterial suspensions are inoculated at 1% in the Tryptose Soy Broth (TSB) for Escherichia coli, Serratia marcescens and the strains of the Staphylococcus genus, or in the brain-heart infusion (BHI) broth for Enterococcus faecalis and Listeria innocua. The incubation is carried out at 37° C., except in the case of Serratia marcescens, which is at 30° C.
(§3) The bacterial innoculum, from which the work is begun, is obtained after incubating a colony grown in TSB-Agar or BHI-Agar in 10 mL of TSB or BHI overnight at 37a or 30° C. The bacterial suspension (1 mL) is diluted 1/50 with the corresponding culture medium, being incubated at the appropriate temperature for each strain up to achieving a population density of 1-4×10^8 colony-forming units (CFU) per mL. The culture is centrifuged at 2000×g for 10 minutes, the sedimented bacteria are washed twice with 15 mL phosphate buffer (pH 7.4) and the population is adjusted to 10^6 CFU/mL. On a sterile multi-well plate (Greiner Labortechnik, Frickenhausen, Germany), 50 μL of the bacterial suspension, 50 μL of the substance to be tested and 100 μL of the phosphate buffer are mixed with 2% of the appropriate culture medium in each case, and the mixture is incubated at 37° C. or 30° C. for 2 hours. After this time, the mixture is diluted to 10^−5, 100 μL of each one of the dilutions are added to TSB-Agar or BHI-Agar plates and the plates are incubated for 24 hours, after which time the colony count is taken.
(§4) The following equation is used for calculating the antimicrobial activity:
(§5) [formula] [formula] [formula] Measurement of the Angiotensin-Converting Enzyme Inhibitory Activity (ACEIa)

[3] = tested on: Escherichia coli ATCC 25922; assay: as above; assay type: cell-based; conditions: synthetic peptide 0.05 mM
Procedure: as §1, §2, §3, §4, §5

[4] = tested on: Listeria innocua CECT 910T; assay: as above; assay type: cell-based; conditions: synthetic peptide 0.05 mM
Procedure: as §1, §2, §3, §4, §5

[5] = tested on: Serratia marcescens CECT 854; assay: as above; assay type: cell-based; conditions: synthetic peptide 0.05 mM
Procedure: as §1, §2, §3, §4, §5

[6] = tested on: Staphylococcus carnosus CECT 4491T; assay: as above; assay type: cell-based; conditions: synthetic peptide 0.05 mM
Procedure: as §1, §2, §3, §4, §5

[7] = tested on: Staphylococcus epidermidis CECT 231; assay: as above; assay type: cell-based; conditions: synthetic peptide 0.05 mM
Procedure: as §1, §2, §3, §4, §5

[8] = tested on: spontaneously hypertensive rats (SHR); assay: Antihypertensive activity in spontaneously hypertensive rats (SHR), tail cuff SBP and DBP; assay type: in vivo, rat; conditions: 2 mg/kg, intragastric catheter
Procedure: The effect of several of the peptides identified on the blood pressure of spontaneously hypertensive rats (SHR) is studied. The peptides are chemically synthesized for this study.
The study is conducted with male SHR rats 17-20 weeks of age weighing 300 to 350 g, from Charles River Laboratories España S. A. The rats are kept in cages, five per cage, maintaining a stable temperature of 25° C., with 12-hour light-darkness cycles, taking water and food ad libitum. […] The SBP and DBP values are determined by taking 3 consecutive measurements and calculating the average of the three values for each one of these two variables. […]
The products to be tested are administered by means of an intragastric catheter within a time span ranging from 9 a.m. to 10 a.m., and the dosage tested is administered dissolved in 1 ml of distilled water. SBP and DBP readings are taken prior to the administration, and periodic measurements of these variables are also made every 2 hours following the administration, up to 8 hours post-administration. […]
The results are grouped and the ±average of the standard error of the measurement (SEM) for a minimum of 6 homogeneous tests is calculated. […]

[9] = target: T1, angiotensin-converting enzyme (ACE); conditions: peptides from Manchego cheese, Gómez-Ruiz et al. 2004; read-out: ACE-inhibitory activity IC50; cited from earlier work
[10] = read-out: ACE-inhibitory activity CI50, synthetic peptides of FC1 and FD1 subfractions

Molecule | Antimicrobial activity E. faecalis [2] | Antimicrobial activity E. coli [3] | Antimicrobial activity L. innocua [4] | Antimicrobial activity S. marcescens [5] | Antimicrobial activity S. carnosus [6] | antimicrobial activity against S. carnosus (in words) [6] | Antimicrobial activity S. epidermidis [7] | other results
HLPLPLL [SEQ. ID. No. 14, HLPLPLL] |  |  |  |  |  |  |  | IC50 ([1]; synthetic peptides of bovine casein permeate fractions, read-out: ACE-inhibitory activity CI50): 34.2 µM
LKKISQ [SEQ. ID. No. 1, LKKISQ] | 0 | 0.33 | 1.11 | 0 | >6 | bactericidal activity | 3.6 | ACE-inhibitory activity (in words) [1]: potent ACE-inhibitory activity; IC50 [1, 10]: 2.1 µM
LKKISQYYQKFAWPQYL (Derived from casein) [SEQ. ID. No. 3, ovine αs2-casein fragment 165-181] | 3.32 | 4.63 | >6 | 0.38 | >6 | bactericidal activity | >6 | antimicrobial activity against E. coli (in words) [3]: high degree of antimicrobial activity
CC(C)[C@H](NC(=O)[C@H](Cc1ccc(O)cc1)NC(=O)[C@@H]1CCCN1)C(=O)O [SEQ. ID. No. 15, PYV] (H-Pro-Tyr-Val-OH; N-terminus and C-terminus assumed) |  |  |  |  |  |  |  | IC50 ([1]; synthetic peptides resulting from simulated gastrointestinal digestion, read-out: ACE-inhibitory activity IC50): 741 µM; times less ACE-inhibitory activity than the starting peptide ([1]; versus PYVRYL): 370 times; lowering of the SBP and DBP [8]: significant lowering of the SBP and DBP; time of peak effect on the SBP after administration [8]: 2 h
VRYL [SEQ. ID. No. 11, previously identified 205-208 fragment of ovine αs2-casein from Manchego cheese] |  |  |  |  |  |  |  | IC50 [9]: 24.1 µM
PYVRYL [SEQ. ID. No. 7, PYVRYL] |  |  |  |  |  |  |  | IC50 [1, 10]: 1.94 µM
VDQHQKAMKPWTQPKTNAIPYVRYL (Derived from casein) [SEQ. ID. No. 2, ovine αs2-casein fragment 184-208] | 0 | 0.07 | 1.71 | 0 | >6 | bactericidal activity | 0.61 | 
AYFYPEL [SEQ. ID. No. 13, AYFYPEL] |  |  |  |  |  |  |  | IC50 ([1]; read-out: ACE-inhibitory activity CI50, synthetic peptides of bovine casein permeate fractions): 7.5 µM
